The values below come from patent publication US5519024A, “Quinolonecarboxylic acid derivatives and their use” (Takeda Chemical Industries, Ltd., priority 1993, dated 1996).

The target of this assay is T1, GPIIb/IIIa (Homo sapiens, UniProt P05106+P08514).
T1 construct: Purification of GPIIb/IIIa from HEL cells; endogenous in cells; host or cells: HEL cells (HEL 92.1.7, ATCC TIB180); endogenous complex solubilized with Triton X-100 and purified in house
The assay is described as follows: Inhibitory activity against binding of GPIIb/IIIa and fibrinogen. The following applies: read-out: GPIIb/IIIa Fibrinogen Binding Inhibitory Activity. The procedure: Test Example 1: Inhibitory activity against binding of GPIIb/IIIa and fibrinogen
(1) Cultivation of human erythroleukemia-derived cell line (hereinafter referred to as HEL cells)
HEL cells (HEl92.1.7; ATCC No. TIB180) were purchased from ATCC (Rockville, Md., U.S.A.). The medium was RPMI medium (GIBCO Laboratories, Grand Island, N..Y, U.S.A.) containing 40 mM N-2-hydroxyethylpiperazine-N'-2-ethanesulfonic acid (hereinafter referred to as HEPES) (pH 7.0), 0.2% NaHCO3, 100 μg/ml kanamycin and 10% FCS. The cells were cultured in the presence of 5% CO2 at 37° C., with the medium replaced with a fresh medium to obtain a 4- to 5-fold dilution at intervals of 3 to 4 days.
(2) Purification of GPIIb/IIIa from HEL cells
GPIIb/IIIa was purified by a modification of the method of L. A. Fitzgerald et al. [J. Biol. Chem., 262, 3936 (1987)] as follows: All purification was conducted at room temperature, unless otherwise stated. At 7 days of cultivation, cells were collected from the HEL cell culture broth (cell suspension) by centrifugation (1,000 ×g, 10 minutes, 4° C.). After washing with 20 mM Tris-HCl (pH 7.5) containing 1 mM EDTA and 150 mM NaCl, the cells were suspended in a solubilizing buffer (20 mM Tris-HCl, 150 mM NaCl, 1% Triton X-100, 1 mM MgCl2, 1 mM CaCl2, 0.1 mM (p-amidinophenyl)methanesulfonyl fluoride (hereinafter referred to as APMSF), 10 nM leupeptin, 0.02% NaN3, pH 7.4), followed by gentle stirring at 4° C. for 30 minutes, to solubilize the GPIIb/IIIa. The suspension was centrifuged (100,000 ×g, 1 hour) at 4° C., and the cell debris removed, to yield a cell extract. The cell extract was passed through a Heparin-Sepharose CL-6B column (Pharmacia LKB) and a DEAE-Toyopearl 650M column (Tosoh), both previously equilibrated with a column buffer (20 mM Tris-HCl, 150 mM NaCl, 0.1% Triton X-100, 1 mM MgCl2, 1 mM CaCl2, 0.1 mM APMSF, 1 nM leupeptin, 0.05% NaN3, pH 7.4). The effluent was applied to a ConA-Sepharose column (Pharmacia LKB), previously equilibrated with the same column buffer as above, to adsorb the GPIIb/IIIa, followed by elution with the same column buffer but containing 0.5M methyl α-D-mannopyranoside. The eluted fraction was concentrated at 4° C. using an ultrafiltration apparatus (Amicon Corporation the fraction's molecular weight of 10,000), after which it was subjected to gel filtration through a Sephacryl S-300 column (Pharmacia LKB), previously equilibrated with the same column buffer, to yield a purified standard sample.
(3) Biotinization of human fibrinogen
Conducted by the method of I. F. Charo [I. F. Charo et al., J. Biol. Chem., 266, 1415 (1991)].
Human fibrinogen (Kabi Vitrum AB) was dissolved in PBS to 5 mg/ml and then dialyzed at 4° C. against 0.1M carbonate buffer (pH 8.2) containing 0.1M NaCl. After dialysis, insoluble substances were removed by centrifugation (100,000 ×g, 30 minutes), and the dialyzate was diluted to 1 mg/ml with the same buffer. To this dilution, sulfo-N-hydroxysuccinimidebiotin (Pierce Chemical Co.) was added to a final concentration of 0.2 mg/ml, followed by gentle mixing at room temperature for 30 minutes, to biotinize the fibrinogen. After completion of the reaction, the mixture was dialyzed against 0.05M Tris-HCl buffer (pH 7.4) containing 0.1M NaCl and 0.05% NaN3.
(4) Determination of inhibitory activity against fibrinogen binding
Conducted by a modification of the method of I. F. Charo [I. F. Charo et al., J. Biol. Chem., 266, 1415 (1991)] as follows: The purified GPIIb/IIIa was diluted to 1 μg/ml with buffer A (20 mM Tris-HCl, 150 mM NaCl, 1 mM CaCl2, 0.02% NaN3, pH 7.4). A 100 μl aliquot of this dilution was dispensed to a 96-well microplate (Maxisorp, produced by Nunc), and the plate kept standing at 4° C., to adsorb the GPIIb/IIIa to the microplate. Next, 150 μl of buffer B (35 mg/ml BSA, 50 mM Tris-HCl, 100 mM NaCl, 2 mM CaCl2, 0.02% NaN3, pH 7.4) was added, followed by 2 hours of blocking at 30° C. […]

Read-outs that look alike come from different tables or passages of the source.

T1 sequence (P08514 32-887 limits assumed): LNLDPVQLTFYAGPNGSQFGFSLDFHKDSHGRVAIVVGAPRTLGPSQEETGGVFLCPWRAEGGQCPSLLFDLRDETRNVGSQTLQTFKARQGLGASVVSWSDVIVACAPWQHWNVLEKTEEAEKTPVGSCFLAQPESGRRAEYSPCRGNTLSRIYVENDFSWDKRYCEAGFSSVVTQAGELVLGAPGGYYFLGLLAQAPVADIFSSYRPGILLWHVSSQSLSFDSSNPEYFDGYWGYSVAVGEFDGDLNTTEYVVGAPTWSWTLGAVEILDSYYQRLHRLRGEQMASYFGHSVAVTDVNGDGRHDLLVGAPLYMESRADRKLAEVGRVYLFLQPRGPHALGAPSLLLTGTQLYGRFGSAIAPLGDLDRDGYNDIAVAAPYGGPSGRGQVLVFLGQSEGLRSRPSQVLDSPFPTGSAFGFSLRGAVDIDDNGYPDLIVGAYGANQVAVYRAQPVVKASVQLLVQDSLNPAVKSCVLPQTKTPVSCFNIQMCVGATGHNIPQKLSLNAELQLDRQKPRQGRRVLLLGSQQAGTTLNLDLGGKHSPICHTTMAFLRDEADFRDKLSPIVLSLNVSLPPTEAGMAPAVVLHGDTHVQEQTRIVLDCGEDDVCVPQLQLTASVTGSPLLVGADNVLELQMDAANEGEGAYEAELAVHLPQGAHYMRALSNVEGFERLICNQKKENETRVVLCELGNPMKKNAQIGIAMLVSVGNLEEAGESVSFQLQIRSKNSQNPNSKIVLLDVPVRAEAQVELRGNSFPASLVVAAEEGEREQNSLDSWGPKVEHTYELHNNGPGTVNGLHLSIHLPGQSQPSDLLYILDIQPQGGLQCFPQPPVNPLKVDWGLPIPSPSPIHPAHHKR
T1 sequence (P08514 891-1039 limits assumed): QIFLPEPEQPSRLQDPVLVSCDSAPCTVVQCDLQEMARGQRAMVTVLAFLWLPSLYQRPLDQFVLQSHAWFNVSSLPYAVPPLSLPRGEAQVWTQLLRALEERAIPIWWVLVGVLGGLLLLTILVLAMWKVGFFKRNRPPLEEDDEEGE
T1 sequence (P05106 27-788): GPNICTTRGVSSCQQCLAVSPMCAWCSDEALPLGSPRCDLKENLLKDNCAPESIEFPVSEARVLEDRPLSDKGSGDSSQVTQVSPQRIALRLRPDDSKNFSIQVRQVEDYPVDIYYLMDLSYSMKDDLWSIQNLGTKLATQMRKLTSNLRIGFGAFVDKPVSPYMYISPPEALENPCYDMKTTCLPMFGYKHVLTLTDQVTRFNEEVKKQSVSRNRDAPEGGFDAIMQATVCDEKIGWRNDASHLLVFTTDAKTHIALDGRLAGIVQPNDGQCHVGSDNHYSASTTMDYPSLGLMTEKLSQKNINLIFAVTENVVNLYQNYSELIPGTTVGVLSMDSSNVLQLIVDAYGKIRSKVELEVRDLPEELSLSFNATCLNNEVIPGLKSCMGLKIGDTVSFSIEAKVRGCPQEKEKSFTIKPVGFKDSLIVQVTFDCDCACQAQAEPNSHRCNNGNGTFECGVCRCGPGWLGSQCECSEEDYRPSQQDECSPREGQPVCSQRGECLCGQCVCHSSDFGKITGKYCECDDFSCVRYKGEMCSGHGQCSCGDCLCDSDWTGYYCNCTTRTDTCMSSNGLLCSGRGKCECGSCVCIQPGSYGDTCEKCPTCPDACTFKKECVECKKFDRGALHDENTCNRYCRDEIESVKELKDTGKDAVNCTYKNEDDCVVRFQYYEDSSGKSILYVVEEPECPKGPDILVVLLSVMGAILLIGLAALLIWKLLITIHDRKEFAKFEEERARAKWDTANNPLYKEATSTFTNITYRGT

Turning to `CN1CCN(c2c(F)cc3c(=O)c(C(=O)O)cn(CCF)c3c2F)CC1` [Compound 7], under “Table 2, 10^-5 M”, the inhibition at 10 µM turned out to be 91%. Also, the inhibition at 1 µM (Table 2, 10^-6 M) came out at 62.1%.
Take `O=C(O)c1cn(Cc2ccccc2)c2c(F)c(N3CCNCC3)c(F)cc2c1=O` [Compound 55, 1-Benzyl-6,8-difluoro-7-(1-piperazinyl)-1,4-dihydro-4-oxoquinoline-3-carboxylic acid]: under “Table 2, 10^-5 M”, the inhibition at 10 µM worked out at 100%. The inhibition at 1 µM (Table 2, 10^-6 M) came to 93.8%.
Consider `O=C(O)c1cn(C2CCc3ccccc32)c2c(F)c(N3CCNCC3)c(F)cc2c1=O` (stereo not shown) [Compound 46, 6,8-Difluoro-1-(indan-1-yl)-7-(piperazin-1-yl) 1,4-dihydro-4-oxoquinoline-3-carboxylic acid], for which the inhibition at 1 µM (Table 2, 10^-6 M) came to 41.6%.
Regarding `CN1CCN(c2c(F)cc3c(=O)c(C(=O)O)cn(C)c3c2F)CC1` [Compound 1], the inhibition at 10 µM (Table 2, 10^-5 M) came out at 70.7%. Besides, the inhibition at 1 µM (Table 2, 10^-6 M) was found to be 48.6%.
The matching figures for `C=CCN(CC=C)c1c(F)cc2c(=O)c(C(=O)O)cn(C3CC3)c2c1F` [Compound 43]: 52.1% and 20.2%.
Regarding `CC1COc2c(N3CCN(C)CC3)c(F)cc3c(=O)c(C(=O)O)cn1c23` (stereo not shown) [Ofloxacin, reference compound], the inhibition at 10 µM (Table 1, 1 × 10^-5 M) turned out to be 42.4%. In addition, the inhibition at 1 µM (Table 1, 1 × 10^-6 M) amounted to 4%.
With `O=C(O)c1cn(C2CC2)c2c(F)c(N3Cc4ccccc4C(CO)C3)c(F)cc2c1=O` (stereo not shown) [Compound 36], under “Table 2, 10^-5 M”, the inhibition at 10 µM is 56%. In addition, the inhibition at 1 µM (Table 2, 10^-6 M) stood at 36.3%.
For the compound `CN1CCN(c2c(F)cc3c(=O)c(C(=O)O)cn(C4CC4)c3c2F)CC1` [Compound 17], for the setting “Table 2, 10^-5 M”, the inhibition at 10 µM turned out to be 47.3%. Moreover, the inhibition at 1 µM (Table 2, 10^-6 M) was found to be 17.1%.
The like results for `O=C(O)c1cn(C2CC2)c2c(F)c(N3CCNCC3)c(F)cc2c1=O` [Compound 22] were, in that order, 72.7% and 39.8%.
The like results for `O=C(O)c1cn(CCO)c2c(F)c(N3CCn4ccnc4C3)c(F)cc2c1=O` [Compound 10, 1-(2-Hydroxyethyl)-6,8-difluoro-7-(5,6,7,8-tetrahydroimidazo[1,2-a]pyrazin-7-yl)-1,4-dihydro-4-oxoquinoline-3-carboxylic acid] were, in that order, 91.3% and 72.9%.
The matching figures for `NC1CN(c2c(F)cc3c(=O)c(C(=O)O)cn(C4CC4)c3c2F)Cc2ccccc21` (stereo not shown) [Compound 35]: 51.8% and 21.5%.
For `O=C(O)c1cn(Cc2ccc(C(F)(F)F)cc2)c2c(F)c(N3CCC(C4CCNCC4)CC3)c(F)cc2c1=O` [Compound 79, 6,8-Difluoro-7-[4-(4-piperidinyl)piperidin-1-yl]-1-(4-trifiuoromethylbenzyl)-1,4-dihydro-4-oxoquinoline-3-carboxylic acid], the inhibition at 10 µM (Table 2, 10^-5 M) was determined as 100%. Also, the inhibition at 1 µM (Table 2, 10^-6 M) is 100%.
On to `CN(C)Cc1cn2c(n1)CN(c1c(F)cc3c(=O)c(C(=O)O)cn(C4CC4)c3c1F)CC2` [Compound 28, 1-Cyclopropyl-6,8-difluoro-7-(2-dimethylaminomethyl-5,6,7,8-tetrahydroimidazo[1,2-a]pyrazin-7-yl)-1,4-dihydro-4-oxoquinoline-3-carboxylic acid], for which the inhibition at 10 µM (Table 2, 10^-5 M) is 95.8%. For the same compound, under “Table 2, 10^-6 M”, the inhibition at 1 µM amounted to 73.3%.
With `O=C(O)c1cn(CCF)c2c(F)c(N3CCN4CCCC4C3)c(F)cc2c1=O` (stereo not shown) [Compound 8], under “Table 2, 10^-5 M”, the inhibition at 10 µM is 79.3%. For the same compound, for the setting “Table 2, 10^-6 M”, the inhibition at 1 µM worked out at 53.1%.
The matching figures for `Cc1cnc2n1CCN(c1c(F)cc3c(=O)c(C(=O)O)cn(C4CC4)c3c1F)C2` [Compound 29]: 68.7% and 38.4%.
As for `O=C(O)c1cn(C2CC2)c2c(F)c(N3CCn4ccnc4C3)c(F)c(F)c2c1=O` [Compound 40], under “Table 2, 10^-5 M”, the inhibition at 10 µM was 50.6%. Moreover, the inhibition at 1 µM (Table 2, 10^-6 M) stood at 34.7%.
The like results for `O=C(O)c1cn(C2CC2)c2cc(N3CCN4CCC[C@H]4C3)c(F)cc2c1=O` [Compound 32] were, in that order, 71.2% and 39.5%.
The like results for `NCC1CN(c2c(F)cc3c(=O)c(C(=O)O)cn(C4CC4)c3c2F)Cc2ccccc21` (stereo not shown) [Compound 37] were, in that order, 60.1% and 32.5%.
On to `COc1cccc(Cn2cc(C(=O)O)c(=O)c3cc(F)c(N4CCC(C5CCNCC5)CC4)c(F)c32)c1` [Compound 80, 6,8-Difluoro-1-(3-methoxybenzyl)-7-[4-(4-piperidinyl)piperidin-1-yl]-1,4-dihydro-4-oxoquinoline-3-carboxylic acid], for which the inhibition at 10 µM (Table 2, 10^-5 M) is 100%. Besides, the inhibition at 1 µM (Table 2, 10^-6 M) is 100%.
Turning to `CN(C)CCn1cc(C(=O)O)c(=O)c2cc(F)c(N3CCN(C)CC3)cc21` [Compound 13], the inhibition at 10 µM (Table 2, 10^-5 M) worked out at 70.5%. The inhibition at 1 µM (Table 2, 10^-6 M) stood at 54.7%.
For the compound `COn1cc(C(=O)O)c(=O)c2cc(F)c(N3CCn4ccnc4C3)c(F)c21` [Compound 45], the inhibition at 10 µM (Table 2, 10^-5 M) amounted to 59.9%. Also, the inhibition at 1 µM (Table 2, 10^-6 M) stood at 31.4%.
As for `CCn1cc(C(=O)O)c(=O)c2cc(F)c(N3CCNCC3)cc21` [Norfloxacin, reference compound], the inhibition at 10 µM (Table 1, 1 × 10^-5 M) is 77.4%. For the same compound, under “Table 1, 1 × 10^-6 M”, the inhibition at 1 µM was found to be 38.7%.
For `O=C(O)c1cn(Cc2ccc(F)cc2)c2c(F)c(N3CCC(C4CCNCC4)CC3)c(F)cc2c1=O` [Compound 78, 6,8-Difluoro-1-(4-fluorobenzyl)-7-[4-(4-piperidinyl)piperidin-1-yl]-1,4-dihydro-4-oxoquinoline-3-carboxylic acid], for the setting “Table 2, 10^-5 M”, the inhibition at 10 µM stood at 98.1%. The inhibition at 1 µM (Table 2, 10^-6 M) is 100%.
The matching figures for `CN(C)CCOC1CCN(c2c(F)cc3c(=O)c(C(=O)O)cn(Cc4nccs4)c3c2F)C1` (stereo not shown) [Compound 62]: 100% and 100%.
The like results for `O=C(O)c1cn(Cc2nccs2)c2c(F)c(N3CCN(c4ccncc4)CC3)c(F)cc2c1=O` [Compound 64] were, in that order, 100% and 100%.
Consider `NC1CCN(c2nc3c(cc2F)c(=O)c(C(=O)O)cn3-c2ccc(F)cc2F)C1` (stereo not shown) [Tosufloxacin, reference compound], for which the inhibition at 10 µM (Table 1, 1 × 10^-5 M) was found to be 37.6%. Further, the inhibition at 1 µM (Table 1, 1 × 10^-6 M) was found to be 30.7%.
Take `O=C(O)c1cn(Cc2nccs2)c2c(F)c(N3CCN(c4cccnc4)CC3)c(F)cc2c1=O` [Compound 66]: the inhibition at 10 µM (Table 2, 10^-5 M) was found to be 100%. For the same compound, the inhibition at 1 µM (Table 2, 10^-6 M) is 86.7%.
The matching figures for `CCn1cc(C(=O)O)c(=O)c2cc(F)c(SC3CCN(C)CC3)cc21` [Compound 5]: 60.3% and 26%.
